Assay results published in ChEMBL document CHEMBL4334438, “Discovery of novel glycogen synthase kinase-3α inhibitors: Structure-based virtual screening, preliminary SAR and biological evaluation for treatment of acute myeloid leukemia” (Eur J Med Chem, 2019).

Key:
[1] = system: Macrophage colony-stimulating factor 1 receptor (Homo sapiens), P07333 [Y969C]; assay: Inhibition of recombinant human FMS Y969C mutant (538 to end residues) assessed as residual activity at 1 uM using EEEEYEEEEEEYYIIEEEEEEYEEEEEEYYEEEEEEKKKK as substrate at 40 mins in presence of [gamma-33ATP] by scintillation counting based radiometry assay relative to control
[2] = biological target: Mitogen-activated protein kinase kinase kinase 7 (Homo sapiens) (UniProt O43318); assay: Inhibition of human TAK1 (1 to 303 residues) assessed as residual activity at 1 uM using casein as substrate measured after 40 mins in presence of [gamma33P]ATP by scintillation counting method relative to control
[3] = system: PI3-kinase p110-alpha/p85-alpha (Homo sapiens), P27986+P42336 [E542K]; assay: Inhibition of recombinant full-length human PI3K p110alpha E542K mutant/p85alpha assessed as residual activity at 1 uM assessed as residual activity at 1 uM using phosphatidylinositol-4, 5-bisphosphate as substrate incubated for 40 mins in presence of [gamma33P]ATP by scintillation counting based radiometry assay relative to control; format: protein-complex assay
[4] = biological target: Rhodopsin kinase GRK1 (Homo sapiens) (UniProt Q15835); assay: Inhibition of recombinant full length human GRK1 assessed as residual activity at 1 uM using KKKKERLLDDRHDSGLDSMKDEE as substrate at 40 mins in presence of [gamma-33ATP] by scintillation counting based radiometry assay relative to control
[5] = biological target: Serine/threonine-protein kinase ULK2 (Homo sapiens) (UniProt Q8IYT8); assay: Inhibition of human ULK2 (1 to 306 residues) assessed as residual activity at 1 uM using casein as substrate measured after 40 mins in presence of [gamma33P]ATP by scintillation counting method relative to control
[6] = system: Mitogen-activated protein kinase 14 (Homo sapiens), Q16539 [T106M]; assay: Inhibition of recombinant human full length SAPK2a T106M mutant assessed as residual activity at 1 uM using myelin basic protein as substrate measured after 40 mins in presence of [gamma33P]ATP by scintillation counting method relative to control
[7] = biological target: Death-associated protein kinase 1 (Homo sapiens) (UniProt P53355); assay: Inhibition of recombinant human DAPK1 (1 to 296 residues) assessed as residual activity at 1 uM KKLNRTLSFAEPG as substrate incubated 40 mins in presence of [gamma-33ATP] by scintillation counting based radiometry assay relative to control
[8] = biological target: Tyrosine-protein kinase ZAP-70 (Homo sapiens) (UniProt P43403); assay: Inhibition of recombinant full-length human ZAP70 at 1 uM assessed as residual activity at 1 uM using poly(Glu, Tyr) 4:1 as substrate measured after 40 mins in presence of [gamma33P]ATP by scintillation counting method relative to control
[9] = biological target: Serine/threonine-protein kinase 38-like (Homo sapiens) (UniProt Q9Y2H1); assay: Inhibition of recombinant human NDR2 (83 to end residues) assessed as residual activity at 1 uM using RSRSRSRSRSRSRSR as substrate measured after 40 mins in presence of [gamma33P]ATP by scintillation counting method relative to control
[10] = biological target: MAP kinase-interacting serine/threonine-protein kinase 2 (Homo sapiens) (UniProt Q9HBH9); assay: Inhibition of recombinant full-length human Mnk2 assessed as residual activity at 1 uM using myelin basic protein as substrate measured after 40 mins in presence of [gamma33P]ATP by scintillation counting method
[11] = biological target: MAPK/MAK/MRK overlapping kinase (Homo sapiens) (UniProt Q9UQ07); assay: Inhibition of recombinant human MOK (1 to 343 residues) assessed as residual activity at 1 uM using RSRSRSRSRSRSRSR as substrate measured after 40 mins in presence of [gamma33P]ATP by scintillation counting method relative to control
[12] = biological target: Serine/threonine-protein kinase Nek3 (Homo sapiens) (UniProt P51956); assay: Inhibition of recombinant full-length human NEK3 assessed as residual activity at 1 uM using myelin basic protein as substrate measured after 40 mins in presence of [gamma33P]ATP by scintillation counting method relative to control
[13] = biological target: Serine/threonine-protein kinase 26 (Homo sapiens) (UniProt Q9P289); assay: Inhibition of recombinant human MST4 (4 to 304 residues) assessed as residual activity at 1 uM using RLGRDKYKTLRQIRQ as substrate measured after 40 mins in presence of [gamma33P]ATP by scintillation counting method relative to control
[14] = biological target: Calcium/calmodulin-dependent protein kinase type II subunit gamma (Homo sapiens) (UniProt Q13555); assay: Inhibition of recombinant human CaMK2gamma (1 to 330 residues) assessed as residual activity at 1 uM […] incubated for 40 mins in presence of [gamma-33ATP] by scintillation counting based radiometry assay relative to control
[15] = system: Tyrosine-protein kinase ABL1 (Homo sapiens), P00519 [T315I]; assay: Inhibition of human ABL1 T315I mutant (27 to end residues) assessed as residual activity at 1 uM using EAIYAAPFAKKK as substrate incubated for 40 mins in presence of [gamma-33ATP] by scintillation counting based radiometry assay relative to control
[16] = biological target: Fibroblast growth factor receptor 1 (Homo sapiens) (UniProt P11362); assay: Inhibition of recombinant human FGFR1 (456 to 765 residues) assessed as residual activity at 1 uM using KKKSPGEYVNIEF as substrate at 40 mins in presence of [gamma-33ATP] by scintillation counting based radiometry assay relative to control
[17] = system: eIF-2-alpha kinase GCN2 (Homo sapiens), Q9P2K8 [E556G]; assay: Inhibition of recombinant full length human GCN2 E556G mutant assessed as residual activity at 1 uM using RSRSRSRSRSRSRSR as substrate at 40 mins in presence of [gamma-33ATP] by scintillation counting based radiometry assay relative to control
[18] = biological target: Cyclin-dependent kinase-like 2 (Homo sapiens) (UniProt Q92772); assay: Inhibition of recombinant full length human CDKL2 assessed as residual activity at 1 uM in presence of [gamma-33ATP] by scintillation counting based radiometry assay relative to control
[19] = biological target: CDK9/cyclin T1 (Homo sapiens) (UniProt O60563+P50750); assay: Inhibition of recombinant full length human CDK9/cyclinT1 assessed as residual activity at 1 uM using KTFCGTPEYLAPEVRREPRILSEEEQEMFRDFDYIADWC as substrate incubated for 40 mins in presence of [gamma-33ATP] by scintillation counting based radiometry assay relative to control; format: protein-complex assay
[20] = biological target: Cyclin-dependent kinase 13/Cyclin-K (Homo sapiens) (UniProt Q14004+O75909); assay: Inhibition of recombinant full length human CDK13/cyclinK assessed as residual activity at 1 uM using RSRSRSRSRSRSRSR as substrate incubated for 120 mins in presence of [gamma-33ATP] by scintillation counting based radiometry assay relative to control; format: protein-complex assay
[21] = biological target: Serine/threonine-protein kinase Nek11 (Homo sapiens) (UniProt Q8NG66); assay: Inhibition of recombinant full length human NEK11 assessed as residual activity at 1 uM myelin basic protein as substrate measured after 40 mins in presence of [gamma33P]ATP by scintillation counting method relative to control

Rhodopsin kinase GRK1 (Homo sapiens), sequence (Q15835 whole entry, the tested form may be a part): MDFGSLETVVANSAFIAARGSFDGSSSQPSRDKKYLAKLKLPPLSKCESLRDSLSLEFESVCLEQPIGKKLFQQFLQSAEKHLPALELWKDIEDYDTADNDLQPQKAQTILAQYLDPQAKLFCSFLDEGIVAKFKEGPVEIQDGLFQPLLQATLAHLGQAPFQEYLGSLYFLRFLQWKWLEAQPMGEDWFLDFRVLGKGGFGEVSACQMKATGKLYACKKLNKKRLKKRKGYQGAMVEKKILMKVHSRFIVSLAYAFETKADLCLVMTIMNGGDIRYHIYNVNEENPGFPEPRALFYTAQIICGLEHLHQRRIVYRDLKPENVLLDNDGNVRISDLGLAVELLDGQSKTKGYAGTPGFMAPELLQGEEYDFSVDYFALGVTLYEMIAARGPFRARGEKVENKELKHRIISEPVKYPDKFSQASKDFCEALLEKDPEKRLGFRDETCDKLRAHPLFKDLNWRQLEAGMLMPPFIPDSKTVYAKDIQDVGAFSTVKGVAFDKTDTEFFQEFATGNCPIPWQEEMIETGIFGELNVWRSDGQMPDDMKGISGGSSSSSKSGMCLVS
Serine/threonine-protein kinase 26 (Homo sapiens), sequence (Q9P289 2-416 limits assumed): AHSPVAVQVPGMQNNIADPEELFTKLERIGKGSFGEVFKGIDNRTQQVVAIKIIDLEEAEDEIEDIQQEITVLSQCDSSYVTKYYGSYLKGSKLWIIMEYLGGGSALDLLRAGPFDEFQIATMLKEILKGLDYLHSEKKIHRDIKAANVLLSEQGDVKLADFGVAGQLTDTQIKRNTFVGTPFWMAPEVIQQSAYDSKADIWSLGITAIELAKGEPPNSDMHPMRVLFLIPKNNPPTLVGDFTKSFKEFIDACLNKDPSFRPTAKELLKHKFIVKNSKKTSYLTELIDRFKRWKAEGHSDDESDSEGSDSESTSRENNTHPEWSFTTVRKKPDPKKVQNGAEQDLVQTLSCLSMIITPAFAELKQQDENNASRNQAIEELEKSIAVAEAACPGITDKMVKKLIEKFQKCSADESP
Serine/threonine-protein kinase 38-like (Homo sapiens), sequence (Q9Y2H1 2-464 limits assumed): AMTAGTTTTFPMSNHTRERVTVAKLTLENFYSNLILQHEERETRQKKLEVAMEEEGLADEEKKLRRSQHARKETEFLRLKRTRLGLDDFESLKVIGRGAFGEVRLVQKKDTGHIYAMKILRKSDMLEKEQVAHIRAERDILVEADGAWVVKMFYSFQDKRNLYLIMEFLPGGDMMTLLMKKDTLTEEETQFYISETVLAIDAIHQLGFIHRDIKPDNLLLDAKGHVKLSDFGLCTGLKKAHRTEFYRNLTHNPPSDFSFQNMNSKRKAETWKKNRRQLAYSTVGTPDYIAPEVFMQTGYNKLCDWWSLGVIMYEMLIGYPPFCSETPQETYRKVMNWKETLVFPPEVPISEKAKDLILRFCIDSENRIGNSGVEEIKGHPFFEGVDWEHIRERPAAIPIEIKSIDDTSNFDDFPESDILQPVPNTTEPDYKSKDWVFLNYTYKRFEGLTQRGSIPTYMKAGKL
Death-associated protein kinase 1 (Homo sapiens), sequence (P53355 whole entry, looked up, the tested form may be a part): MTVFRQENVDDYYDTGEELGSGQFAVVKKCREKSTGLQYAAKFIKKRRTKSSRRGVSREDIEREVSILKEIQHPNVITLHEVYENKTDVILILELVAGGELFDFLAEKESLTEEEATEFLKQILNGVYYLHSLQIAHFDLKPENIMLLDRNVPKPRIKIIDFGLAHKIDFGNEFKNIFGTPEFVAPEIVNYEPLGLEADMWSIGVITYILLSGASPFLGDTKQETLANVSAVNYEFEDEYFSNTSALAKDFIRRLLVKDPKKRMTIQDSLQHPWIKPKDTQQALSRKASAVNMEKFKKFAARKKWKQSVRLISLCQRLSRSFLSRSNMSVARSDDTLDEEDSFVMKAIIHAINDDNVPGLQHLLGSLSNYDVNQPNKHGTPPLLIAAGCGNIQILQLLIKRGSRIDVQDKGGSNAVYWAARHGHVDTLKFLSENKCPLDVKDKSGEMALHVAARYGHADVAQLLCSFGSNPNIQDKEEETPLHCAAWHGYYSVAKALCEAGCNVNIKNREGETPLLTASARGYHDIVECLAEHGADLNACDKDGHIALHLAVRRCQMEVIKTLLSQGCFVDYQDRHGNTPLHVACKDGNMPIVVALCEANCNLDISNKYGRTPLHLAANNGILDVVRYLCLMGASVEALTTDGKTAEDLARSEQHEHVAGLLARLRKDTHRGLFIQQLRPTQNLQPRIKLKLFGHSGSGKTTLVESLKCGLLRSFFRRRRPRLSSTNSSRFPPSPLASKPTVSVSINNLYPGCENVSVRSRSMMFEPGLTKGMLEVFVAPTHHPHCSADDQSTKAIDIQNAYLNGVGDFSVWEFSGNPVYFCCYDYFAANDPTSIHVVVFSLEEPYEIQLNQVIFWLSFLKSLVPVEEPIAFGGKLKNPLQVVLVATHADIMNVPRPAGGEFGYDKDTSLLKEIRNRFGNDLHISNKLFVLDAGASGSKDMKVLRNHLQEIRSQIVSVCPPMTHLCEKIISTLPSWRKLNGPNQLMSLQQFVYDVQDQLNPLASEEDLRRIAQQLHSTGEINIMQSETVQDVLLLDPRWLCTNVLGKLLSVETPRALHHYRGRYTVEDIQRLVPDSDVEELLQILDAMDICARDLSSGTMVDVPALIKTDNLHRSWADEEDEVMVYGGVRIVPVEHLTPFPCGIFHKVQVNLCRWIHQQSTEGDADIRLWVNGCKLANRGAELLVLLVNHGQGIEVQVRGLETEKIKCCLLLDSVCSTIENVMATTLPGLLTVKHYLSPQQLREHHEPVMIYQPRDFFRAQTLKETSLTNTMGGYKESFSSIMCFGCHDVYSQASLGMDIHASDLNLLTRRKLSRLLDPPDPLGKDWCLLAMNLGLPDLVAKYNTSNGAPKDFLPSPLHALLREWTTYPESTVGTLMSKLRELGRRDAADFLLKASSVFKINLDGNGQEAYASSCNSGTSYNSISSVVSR
Calcium/calmodulin-dependent protein kinase type II subunit gamma (Homo sapiens), sequence (Q13555 whole entry, the tested form may be a part): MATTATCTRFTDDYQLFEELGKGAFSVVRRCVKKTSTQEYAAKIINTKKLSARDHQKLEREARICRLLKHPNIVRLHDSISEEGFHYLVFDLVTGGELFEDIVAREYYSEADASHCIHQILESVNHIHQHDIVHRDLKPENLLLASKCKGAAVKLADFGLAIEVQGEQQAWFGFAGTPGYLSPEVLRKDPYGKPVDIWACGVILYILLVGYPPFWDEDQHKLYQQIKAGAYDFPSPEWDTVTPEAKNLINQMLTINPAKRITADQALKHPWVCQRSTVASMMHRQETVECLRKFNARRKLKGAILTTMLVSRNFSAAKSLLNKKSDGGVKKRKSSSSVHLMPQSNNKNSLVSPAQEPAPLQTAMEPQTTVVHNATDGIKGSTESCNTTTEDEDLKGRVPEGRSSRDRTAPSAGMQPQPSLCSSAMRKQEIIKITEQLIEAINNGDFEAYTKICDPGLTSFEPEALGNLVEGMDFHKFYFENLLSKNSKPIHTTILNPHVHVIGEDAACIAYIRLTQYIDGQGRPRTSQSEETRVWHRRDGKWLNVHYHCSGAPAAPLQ
Macrophage colony-stimulating factor 1 receptor (Homo sapiens), P07333 [Y969C], sequence (P07333 whole entry Y969C, the tested form may be a part): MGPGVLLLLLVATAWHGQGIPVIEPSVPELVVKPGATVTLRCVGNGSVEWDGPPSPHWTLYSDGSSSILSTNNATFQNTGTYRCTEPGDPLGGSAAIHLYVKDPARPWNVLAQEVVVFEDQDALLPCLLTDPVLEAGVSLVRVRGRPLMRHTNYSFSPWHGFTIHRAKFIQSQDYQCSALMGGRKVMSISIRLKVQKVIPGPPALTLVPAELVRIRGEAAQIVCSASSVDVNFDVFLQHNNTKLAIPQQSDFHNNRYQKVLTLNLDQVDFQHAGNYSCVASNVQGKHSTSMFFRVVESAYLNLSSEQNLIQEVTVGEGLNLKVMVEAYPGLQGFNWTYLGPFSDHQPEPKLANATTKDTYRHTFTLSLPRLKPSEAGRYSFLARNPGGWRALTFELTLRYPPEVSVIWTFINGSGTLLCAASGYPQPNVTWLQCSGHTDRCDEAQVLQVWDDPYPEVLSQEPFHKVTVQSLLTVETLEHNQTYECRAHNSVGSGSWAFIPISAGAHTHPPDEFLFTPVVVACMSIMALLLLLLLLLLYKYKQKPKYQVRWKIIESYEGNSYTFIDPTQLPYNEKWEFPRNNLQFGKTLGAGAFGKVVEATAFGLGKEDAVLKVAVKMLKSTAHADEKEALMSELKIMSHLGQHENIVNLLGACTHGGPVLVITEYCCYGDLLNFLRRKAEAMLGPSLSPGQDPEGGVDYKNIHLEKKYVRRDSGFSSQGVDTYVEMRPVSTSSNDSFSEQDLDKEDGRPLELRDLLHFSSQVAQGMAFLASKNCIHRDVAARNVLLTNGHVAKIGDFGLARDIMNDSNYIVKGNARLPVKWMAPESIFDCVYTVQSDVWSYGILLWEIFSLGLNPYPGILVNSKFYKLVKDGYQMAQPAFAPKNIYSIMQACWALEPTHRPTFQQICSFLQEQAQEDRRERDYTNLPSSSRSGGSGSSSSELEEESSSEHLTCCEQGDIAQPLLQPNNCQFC
Serine/threonine-protein kinase Nek3 (Homo sapiens), sequence (P51956 whole entry, the tested form may be a part): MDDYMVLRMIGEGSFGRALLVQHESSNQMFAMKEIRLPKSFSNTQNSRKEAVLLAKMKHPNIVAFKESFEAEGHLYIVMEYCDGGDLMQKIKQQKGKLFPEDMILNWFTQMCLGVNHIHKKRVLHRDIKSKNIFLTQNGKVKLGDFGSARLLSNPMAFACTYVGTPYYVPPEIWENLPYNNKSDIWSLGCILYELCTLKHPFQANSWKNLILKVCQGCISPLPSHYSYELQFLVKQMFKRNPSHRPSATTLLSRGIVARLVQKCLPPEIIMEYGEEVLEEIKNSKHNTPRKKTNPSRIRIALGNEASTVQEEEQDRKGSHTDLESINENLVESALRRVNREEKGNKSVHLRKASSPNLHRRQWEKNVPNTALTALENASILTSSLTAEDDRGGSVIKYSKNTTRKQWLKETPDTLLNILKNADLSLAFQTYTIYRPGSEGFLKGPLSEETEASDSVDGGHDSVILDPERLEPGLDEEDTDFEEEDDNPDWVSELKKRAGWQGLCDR

SMILES | Activity [1] [%] | Activity [2] [%] | Activity [3] [%] | Activity [4] [%] | Activity [5] [%] | Activity [6] [%] | Activity [7] [%] | Activity [8] [%] | Activity [9] [%] | Activity [10] [%] | Activity [11] [%] | Activity [12] [%] | Activity [13] [%] | Activity [14] [%] | Activity [15] [%] | Activity [16] [%] | Activity [17] [%] | Activity [18] [%] | Activity [19] [%] | Activity [20] [%] | further results
C=CCOC(=O)c1cc(-c2ccc(/C=C3/NC(=S)NC3=O)o2)ccc1Cl | 95 | 100 | 91 | 104 | 103 | 100 | 92 | 107 | 118 | 84 | 118 | 94 | 93 | 68 | 103 | 113 | 106 | 68 | 86 | 96 | Activity [21]: 62%
N=C1NC(=O)/C(=C\c2ccc(-c3cccc([N+](=O)[O-])c3)o2)S1 | 106 | 92 | 99 | 97 | 102 | 80 | 84 | 106 | 92 | 77 | 101 | 89 | 94 | 86 | 75 | 99 | 104 | 74 | 74 | 102 | Activity [21]: 55%
